Results as given in patent publication US20040242463A1, “Compositions for stabilizing oxygen-labile species” (priority 1999, published 2004).

Assay: Stability of formulations containing retinol, ascorbic acid and/or tocopherol, HPLC assay
Type: physicochemical
Source text: The stability of different formulations containing retinol, ascorbic acid and/or tocopherol as set forth in Examples 7 and 8 below were monitored in terms of appearance and HPLC assay. The degraded products of retinol, ascorbic acid or tocopherol are yellow or brownish in color. The freshly prepared samples were white creams. Discoloration to yellow or brown indicates the instability.

SMILES | Effect of addition on the stability of retinol and tocopherol | Effect on stability of tocopherol
CC(=O)N[C@@H](CS)C(=O)O [N-acetlcysteine, N-acetylcysteine] | slightly enhances | 
O=C1O[C@H]([C@@H](O)CO)C(O)=C1O [ascorbic acid] |  | assists in stabilizing tocopherol
